In one data set the test system is Staphylococcus aureus. Briefly: Antibacterial activity against Staphylococcus aureus at 1 ug/disk after 24 hrs by paper disk method. Format: functional. Particulars: read-out: IZ.
Data set [1] relates to Plasmodium falciparum. In words: Antimalarial activity against chloroquine-resistant Plasmodium falciparum FcB1 in human erythrocytes after 48 hrs by [G-3H]hypoxanthine uptake. The data set is classed as functional, organism-based. The following applies: FcB1, 48 h.
In data set [2] the test system is Plasmodium falciparum. In words: Antimalarial activity against chloroquine-sensitive Plasmodium falciparum F32 in human erythrocytes after 48 hrs by [G-3H]hypoxanthine uptake. The data set is classed as functional, organism-based. Particulars: F32, 48 h.
Data set [3] deals with Plasmodium falciparum. Briefly: Antimalarial activity against chloroquine-resistant Plasmodium falciparum PFB in human erythrocytes after 48 hrs by [G-3H]hypoxanthine uptake. The data set is classed as functional, organism-based.
The next data set relates to KB. Briefly: Cytotoxicity against human KB cells by neutral red assay. Format: functional, cell-based.
Another data set has as its system Candida tropicalis. Briefly: Antifungal activity against Candida tropicalis at 50 ug/disk after 48 hrs by paper disk method. Format: functional. Particulars: read-out: IZ.
Data set [4] in a line: Toxicity against Artemia salina. Format: organism-based. Particulars: in vivo.

Data on 3 compounds can be found in ChEMBL document CHEMBL1144113, “Methanol adduct of puupehenone, a biologically active derivative from the marine sponge Hyrtios species” (J Nat Prod, 1999).

Each structure is given as a SMILES string. Values after ≈ are worked out from the molar mass of the structure shown.

The IC50 is the midpoint of a concentration-inhibition curve. Read a high IC50 as a need for much substance. As to `CO[C@@H]1c2cc(O)c(O)cc2O[C@@]2(C)CC[C@H]3C(C)(C)CCC[C@]3(C)[C@@H]12`, the zone of inhibition at 1 µg/disc in the data set with Staphylococcus aureus was 7 mm. The IC50 in the data set on Plasmodium falciparum [1] is 1.4 µg/mL (≈ 3.88 µM); in the data set on Plasmodium falciparum [2], 0.4 µg/mL (≈ 1.11 µM); with Plasmodium falciparum [3], 1.2 µg/mL (≈ 3.33 µM); in the data set on KB it was 6 µg/mL (≈ 16.6 µM). The zone of inhibition at 50 µg/disc in the data set on Candida tropicalis was determined as 9 mm.
On to `CO[C@@H]1c2cc(OC(C)=O)c(OC(C)=O)cc2O[C@@]2(C)CC[C@H]3C(C)(C)CCC[C@]3(C)[C@@H]12`, for which the IC50 came out at 1.4 µg/mL (≈ 3.15 µM) in the data set on Plasmodium falciparum [1], 0.6 µg/mL (≈ 1.35 µM) with Plasmodium falciparum [2] and 1.2 µg/mL (≈ 2.7 µM) in the data set on Plasmodium falciparum [3].
As a reminder, the LC50 is the concentration that kills 50% of the test population. Low values mean a more lethal substance, high ones a less lethal substance. Regarding `CC1(C)CCC[C@]2(C)[C@H]3C=C4C=C(O)C(=O)C=C4O[C@@]3(C)CC[C@@H]12` [PUUPEHENONE], the IC50 with Plasmodium falciparum [1] is 2.1 µg/mL (≈ 6.39 µM); in the data set on Plasmodium falciparum [2] it was 0.6 µg/mL (≈ 1.83 µM); in the data set with Plasmodium falciparum [3], 1.5 µg/mL (≈ 4.57 µM); in the data set on KB, 0.5 µg/mL (≈ 1.52 µM). In data set [4], the LC50 came out at 20 µg/mL (≈ 60.9 µM).
